# Measured values taken from patent publication US12202805B2, “Process for preparing (5S)-{[2-(4-carboxyphenyl)ethyl] |2-(2-{|3-chloro-4'-(trifluoromethyl)biphenyl-4-yl]methoxy}phenyl)ethyl]aminol-5,6,7,8-tetrahydroquinoline-2-carboxylic acid and its crystalline forms for use as pharmaceutically active compound” (Bayer Aktiengesellschaft, priority 2021, dated 2025).
# Values joined by “and” are separate entries in the source; they are usually repeats but may differ in a detail not shown here. Equal entries are not always repeated.
# System: thromboxane A2 challenged PAH-minipig
# Experiment: Haemodynamics in the anesthetized thromboxane challenged minipig, intratracheal dry powder (PAP, BP)
# Type: in vivo, Göttingen Minipigs
# Details: for BP (absolute values) / PAP (absolute values): lactose vehicle first, test powder 1.5 mg/4 kg i.t. @90 min, each animal (n=3); for % changes vs. baseline on PAP: each animal
# Experimental: Healthy Göttingen Minipigs® Ellegaard (Ellegaard, Denmark) of both sexes and having a weight of 2-6 kg were used. The animals were sedated by i.m. administration of about 25 mg/kg ketamine and about 10 mg/kg azaperone. Anaesthesia was initiated by i.v. administration of about 2 mg/kg ketamine and about 0.3 mg/kg midazolam. Maintenance of anaesthesia was by i.v. administration of about 7.5-30 mg/kg/h ketamine and about 1-4 mg/kg/h midazolam (rate of infusion 1-4 ml/kg/h) and about 150 μg/kg/h pancuronium bromide (for example Pancuronium-Actavis). After intubation, the animals were ventilated by the ventilator at a constant respiratory volume (10-12 ml/kg, 35 breaths/min; Avea®, Viasys Healthcare, USA, or Engström Carestation, GE Healthcare, Freiburg, Germany) such that an end-tidal CO2 concentration of about 5% was achieved. Ventilation was performed with room air, enriched with about 40% oxygen (normoxia). For the measurement of the haemodynamic parameters such as pulmonary arterial pressure (PAP), blood pressure (BP) and heart rate (HR), catheters were inserted into the carotid artery to measure the blood pressure, and a Swan-Ganz® catheter was introduced in a flow-directed manner via the jugular vein into the pulmonary artery. The haemodynamic signals were recorded and evaluated by means of pressure transducers (Combitransducer, B. Braun, Melsungen, Germany)/amplifiers and Ponemah® as data acquisition software.
# As reference pure Lactose vehicle was applied in the beginning of each experiment.
# [1] = time 0 min, 375 μg/kg i.t., sesquihydrate
# [2] = time 10 min, 375 μg/kg i.t., sesquihydrate
# [3] = time 20 min, 375 μg/kg i.t., sesquihydrate
# [4] = time 20 min, listed as ex. 6e, sesquihydrate
# [5] = time 30 min, listed as ex. 6e, sesquihydrate
# [6] = time 40 min, listed as ex. 6e, sesquihydrate
# [7] = time 50 min, 375 μg/kg i.t., sesquihydrate
# [8] = time 50 min, listed as ex. 6e, sesquihydrate
# [9] = time 60 min, 375 μg/kg i.t., sesquihydrate
# [10] = time 60 min, listed as ex. 6e, sesquihydrate
# [11] = time 70 min, 375 μg/kg i.t., sesquihydrate
# [12] = time 70 min, listed as ex. 6e, sesquihydrate
# [13] = time 80 min, 375 μg/kg i.t., sesquihydrate
# [14] = time 80 min, listed as ex. 6e, sesquihydrate
# [15] = time 90 min, 375 μg/kg i.t., sesquihydrate
# [16] = time 90 min, listed as ex. 6e, sesquihydrate
# [17] = time 100 min, 375 μg/kg i.t., sesquihydrate
# [18] = time 100 min, listed as ex. 6e, sesquihydrate
# [19] = time 110 min, 375 μg/kg i.t., sesquihydrate
# [20] = time 110 min, listed as ex. 6e, sesquihydrate
# [21] = time 120 min, 375 μg/kg i.t., sesquihydrate
# [22] = time 120 min, listed as ex. 6e, sesquihydrate
# [23] = time 130 min, listed as ex. 6e, sesquihydrate
# [24] = time 140 min, listed as ex. 6e, sesquihydrate
smiles,measurement,setting,value
"O.O.O.O=C(O)c1ccc(CCN(CCc2ccccc2OCc2ccc(-c3ccc(C(F)(F)F)cc3)cc2Cl)[C@H]2CCCc3nc(C(=O)O)ccc32)cc1.O=C(O)c1ccc(CCN(CCc2ccccc2OCc2ccc(-c3ccc(C(F)(F)F)cc3)cc2Cl)[C@H]2CCCc3nc(C(=O)O)ccc32)cc1 [example 6e, (5S)—{[2-(4-Carboxyphenyl)ethyl][2-(2-{[3-chloro-4′-(trifluoromethyl)biphenyl-4-yl]methoxy}phenyl)-ethyl]amino}-5,6,7,8-tetrahydroquinoline-2-carboxylic acid sesquihydrate]",systemic blood pressure,"375 μg/kg i.t., within the last hour of the observation interval",slightly affected
same,maximal effect achievable in this animal model,i.t. dry powder,maximal effect
same,time to maximum effect after i.t. application,"i.t. dry powder, 1.5 mg/4 kg animal weight",approximately 80 min
same,effect on PAP and BP,"i.t. via PennCentury dry powder insufflator, 1.5 mg/4 kg animal weight",decrease of PAP without any effects on BP
same,efficacy with regard to PAP reduction as well as systemic BP reduction,"micronized hydrates, 1.5 mg/4 kg (=375 μg/kg) i.t.",comparable efficacy
same,BP (mean),[1],99 mmHg and 104 mmHg and 117 mmHg
same,PAP(mean),[1],41.9 mmHg and 37.1 mmHg and 37.5 mmHg
same,BP (mean),"time 10 min, 375 μg/kg i.t.",99 mmHg
same,BP (mean),[2],108 mmHg and 119 mmHg
same,PAP(mean),[2],42.0 mmHg and 37.3 mmHg and 38.6 mmHg
same,BP (mean),"time 20 min, 375 μg/kg i.t.",99 mmHg
same,BP (mean),[3],109 mmHg and 118 mmHg
same,PAP(mean),[3],41.4 mmHg
same,BP (absolute values),time 20 min,99 mmHg
same,BP (absolute values),[4],107 mmHg and 119 mmHg
same,PAP (absolute values),[4],42.0 mmHg and 36.4 mmHg and 37.5 mmHg
same,BP (mean),"time 30 min, 375 μg/kg i.t.",100 mmHg
same,BP (mean),"time 30 min, 375 μg/kg i.t., sesquihydrate",107 mmHg and 118 mmHg
same,BP (absolute values),[5],99 mmHg and 104 mmHg and 117 mmHg
same,PAP (absolute values),[5],41.9 mmHg and 37.1 mmHg and 37.5 mmHg
same,BP (mean),"time 40 min, 375 μg/kg i.t.",100 mmHg
same,BP (absolute values),time 40 min,99 mmHg
same,BP (absolute values),[6],108 mmHg and 119 mmHg
same,PAP (absolute values),[6],42.0 mmHg and 37.3 mmHg and 38.6 mmHg
same,"BP, % changes vs. prevalues",[7],101.4% and 98.5% and 100.3%
same,"PAP, % changes vs. prevalues",[7],98.3% and 96.2% and 101.2%
same,BP (absolute values),time 50 min,99 mmHg
same,BP (absolute values),[8],109 mmHg and 118 mmHg
same,PAP (absolute values),[8],41.4 mmHg and 37.4 mmHg and 39.8 mmHg
same,"BP, % changes vs. prevalues",[9],102.5% and 100.3% and 99.4%
same,"PAP, % changes vs. prevalues",[9],97.2% and 99.6% and 101.1%
same,BP (absolute values),time 60 min,100 mmHg
same,BP (absolute values),[10],107 mmHg and 118 mmHg
same,PAP (absolute values),[10],41.4 mmHg and 36.8 mmHg and 41.2 mmHg
same,"BP, % changes vs. prevalues",[11],99.4% and 96.0% and 98.6%
same,"PAP, % changes vs. prevalues",[11],97.8% and 97.5% and 98.5%
same,BP (absolute values),time 70 min,100 mmHg
same,BP (absolute values),[12],109 mmHg and 118 mmHg
same,PAP (absolute values),[12],41.0 mmHg and 37.4 mmHg and 41.3 mmHg
same,% changes vs. baseline on PAP,"time 80 min (baseline = 100.0), i.t. dry powder",100.0%
same,"BP, % changes vs. prevalues",[13],101.4% and 96.8% and 97.7%
same,"PAP, % changes vs. prevalues",[13],87.8% and 94.9% and 87.9%
same,BP (absolute values),[14],101 mmHg and 114 mmHg and 119 mmHg
same,PAP (absolute values),[14],40.9 mmHg and 38.1 mmHg and 40.8 mmHg
same,"BP, % changes vs. prevalues",[15],101.4% and 98.5% and 96.9%
same,"PAP, % changes vs. prevalues",[15],82.5% and 92.0% and 76.6%
same,% changes vs. baseline on PAP,"time 90 min, baseline 100.0 at 80 min, i.t. dry powder, sesquihydrate",98.9% and 103.6% and 99.8%
same,BP (absolute values),time 90 min,102 mmHg
same,BP (absolute values),[16],116 mmHg and 118 mmHg
same,PAP (absolute values),[16],40.4 mmHg and 39.5 mmHg and 40.7 mmHg
same,"BP, % changes vs. prevalues",[17],101.4% and 98.5% and 96.9%
same,"PAP, % changes vs. prevalues",[17],77.6% and 90.1% and 71.1%
same,% changes vs. baseline on PAP,"time 100 min, baseline 100.0 at 80 min, i.t. dry powder, sesquihydrate",99.5% and 101.4% and 97.3%
same,BP (absolute values),time 100 min,99 mmHg
same,BP (absolute values),[18],111 mmHg and 117 mmHg
same,PAP (absolute values),[18],40.7 mmHg and 38.7 mmHg and 39.6 mmHg
same,"BP, % changes vs. prevalues",[19],99.4% and 103.7% and 96.1%
same,"PAP, % changes vs. prevalues",[19],74.0% and 88.3% and 68.4%
same,% changes vs. baseline on PAP,"time 110 min, baseline 100.0 at 80 min, i.t. dry powder, sesquihydrate",89.3% and 98.7% and 86.8%
same,BP (absolute values),[20],101 mmHg and 112 mmHg and 116 mmHg
same,PAP (absolute values),[20],36.5 mmHg and 37.6 mmHg and 35.4 mmHg
same,"BP, % changes vs. prevalues",[21],99.4%
same,"PAP, % changes vs. prevalues",[21],72.8% and 73.1% and 66.2%
same,% changes vs. baseline on PAP,"time 120 min, baseline 100.0 at 80 min, i.t. dry powder, sesquihydrate",84.0% and 95.6% and 75.7%
same,BP (absolute values),[22],101 mmHg and 114 mmHg and 115 mmHg
same,PAP (absolute values),[22],34.3 mmHg and 36.4 mmHg and 30.8 mmHg
same,"PAP, % changes vs. prevalues","time 130 min, 375 μg/kg i.t., sesquihydrate",69.8%
same,% changes vs. baseline on PAP,"time 130 min, baseline 100.0 at 80 min, i.t. dry powder, sesquihydrate",78.9% and 93.7% and 70.2%
same,BP (absolute values),[23],101 mmHg and 114 mmHg and 115 mmHg
same,PAP (absolute values),[23],32.3 mmHg and 35.7 mmHg and 28.6 mmHg
same,% changes vs. baseline on PAP,"time 140 min, baseline 100.0 at 80 min, i.t. dry powder, sesquihydrate",75.2% and 91.8% and 67.5%
same,BP (absolute values),[24],99 mmHg and 120 mmHg and 114 mmHg
same,PAP (absolute values),[24],30.8 mmHg and 35.0 mmHg and 27.5 mmHg
same,% changes vs. baseline on PAP,"time 150 min, baseline 100.0 at 80 min, i.t. dry powder, sesquihydrate",74.0% and 76.0% and 65.4%
